# From US20140147528A1, “GARLIC FORMULATION AND A PROCESS FOR PREPARING THE SAME FOR TREATMENT OF DIABETES” (priority 2012, published 2014)
# What was measured:
# Format in all cases: in vivo, rat
# [1] = test system: STZ induced diabetic rats; assay: Blood glucose in STZ induced diabetic rats (glucometer, tail vein); conditions: Glibenclamide 10 mg/kg p.o. daily, n=6
# Description: (§1) The garlic tablet at the said dosages was subjected to efficacy studies in diabetic animal models. For the efficacy studies on diabetes, studies were carried out using male Wistar albino rats (150-200 g). The animals were grouped and housed in polyacrylic cages with not more than six animals per cage and maintained under standard laboratory conditions (temperature 25°±2° C.) with dark and light cycle (12/12 h). The animals were fed with standard pellet diet supplied by Hindustan Lever Ltd., India and fresh water ad libitum. All the animals were acclimatized to laboratory condition for a week before commencement of experiment. […] were divided into five groups for further experiments.
# (§2) Rats were randomly allocated to five groups. Diabetes was induced by a single intraperitoneal injection of 120 mg/kg of Streptozotocin (STZ) in citrate buffer (0.1 M, pH 4.5). Group I consisted of normal healthy rats that were administered 1 ml/kg of 0.5% carboxy methylcellulose (CMC) solution orally. Group II consisted of diabetic rats used as control and were administered orally 1 ml/kg of 0.5% carboxy methylcellulose solution. Groups III consisted of diabetic rats treated daily with oral administration of 10 mg/kg of glibenclamide. Group IV consisted of diabetic rats treated orally with 500 mg of tablet suspended in 0.5% carboxy methylcellulose solution. Group V consisted of diabetic rats treated orally with 1000 mg of tablet suspended in 0.5% carboxy methylcellulose solution.
# (§3) All the test drugs were administered for 21 days. Blood glucose levels were estimated on the 1st, 3rd, 7th, 14th and 21st day by collecting tail vein using glucometer during drug treatment. On the 22nd day, the blood was collected for biochemical estimation by sinus puncture under anesthesia. The animals were sacrificed by cervical dislocation and organs were removed for histopathological studies.
# [2] = Body weight development in STZ diabetic rats; conditions: Glibenclamide 10 mg/kg p.o. (Group III), ± S.E, n=6
# Description: as §1
# as §2, with “Group V consisted of diabetic rats treated orally with 1000 mg of tablet suspended in 0.5% carboxy methylcellulose solution.” left out
# [3] = test system: STZ diabetic rats; assay: Serum total protein, creatinine and uric acid in STZ diabetic rats; conditions: Glibenclamide 10 mg/kg p.o. (Group III), 21 days, ± S.E, n=6
# Description: as §1, §2, §3
# [4] = test system: STZ diabetic rats; assay: Hemoglobin, glycosylated hemoglobin and plasma insulin in STZ diabetic rats; conditions: Glibenclamide 10 mg/kg p.o. (Group III), 21 days, ± S.E, n=6
# Description: as §1
# as §2, with “Group V consisted of diabetic rats treated orally with 1000 mg of tablet suspended in 0.5% carboxy methylcellulose solution.” left out
# [5] = test system: STZ diabetic rats; assay: Serum AST, ALT and ALP in STZ diabetic rats; conditions: Glibenclamide 10 mg/kg p.o. (Group III), 21 days, ± S.E, n=6
# Description: as §1, §2, §3
smiles,measurement,setting,value
"COc1ccc(Cl)cc1C(=O)NCCc1ccc(S(=O)(=O)NC(=O)NC2CCCCC2)cc1 [Glibenclamide, glibenclamide]","Blood Sugar, 1 Day","[1]; day 1, mean",290.50 mg/dL
same,"Blood Sugar, 3 Day","[1]; day 3, mean",210.17 mg/dL
same,"Blood Sugar, 7 Day","[1]; day 7, mean",157.67 mg/dL
same,"Blood Sugar, 14 Day","[1]; day 14, mean",124.50 mg/dL
same,"Blood Sugar, 21 Day","[1]; day 21, mean",113.17 mg/dL
same,Body Weight Final,[2]; 21 days,161.13 ± 2.14^b* g
same,Body Weight Initial,[2],163.6 ± 1.42 g
same,Creatinine,[3],1.04 ± 0.01^b** mg/dl
same,Protein,[3],126.4 ± 2.84^b*** mg/dl
same,Uric acid,[3],1.57 ± 0.06^b*** mg/dl
same,HBA1C,[4],0.17 ± 0.008^b*** % Hb
same,Plasma Insulin,[4],16.4 ± 0.27^b*** μU/ml
same,ALP,[5],171.9 ± 4.07 ^b*** μmoles of phenol liberated/min/mg of protein
same,ALT,[5],56.4 ± 1.54 ^b*** μmoles of pyruvate/h/mg/of protein
same,AST,[5],161.0 ± 64.0 ^b*** μmoles of pyruvate/h/mg/of protein
